Source: US12233419B2, “Devices, systems, and methods for single cell bacteria analysis” (priority 2018, dated 2025)
{TAMRA} = 6-carboxytetramethylrhodamine (NHS ester) fluorophore; {FAM} = 6-carboxyfluorescein (6-FAM) fluorophore; {IBFQ} = Iowa Black FQ dark quencher; {IBRQ} = Iowa Black RQ dark quencher

Experiments:
[1] = test system: E. coli (EC137); assay: Single cell AST in adaptable microfluidic device; assay type: cell-based; conditions: for antibiotic response in polymicrobial sample: ampicillin 8 μg/mL, mixed with S. epidermidis or EC136
From the text: (§1) Taking advantage of microfluidic confinement, single cell AST can be performed phenotypically in the presence of antibiotics in the channel. Resistant strains can grow in the presence of the antibiotic while the antibiotic would inhibit the growth of susceptible strains (FIG. 1C). As the cross-section of the channels is compatible with the size of the pathogen, the bacterial growth is confined along the microchannel. The change in length of the bacteria in the channel over time is used to quantitatively measure the growth of the bacteria.
(§2) In embodiments, bacterial trapping channels of this disclosure are also capable of single cell AST by monitoring the phenotypic growth of the trapped bacteria in the channel. In control groups without antibiotics, the bacteria grew exponentially along the microchannels (FIG. 2B, E, H). […] Growth was measured by an increase in the length of the bacteria occupying the microchannel. The length was normalized according to the initial length for estimating the growth rate, to account for variation of the initial length. Comparison of the growth rate between the control group and the antibiotic group determined the susceptibility of the bacteria. […] Unless otherwise specified, this definition is applied throughout Part I of this disclosure.
(§3) E. coli, S. epidermidis, and M. bacteremicum were cultured in Mueller Hinton broth, Nutrient broth, and ATCC medium 1395, respectively. The bacteria were cultured to an optical density at 600 nm (OD600) around 0.2 (measured with Nanodrop 2000, Thermo Scientific) and diluted to 5×10^5 cfu/mL following the CLSI guideline. […] The concentration of oxacillin for S. epidermidis was 4 μg/mL. A 20 μl sample was loaded into the inlet of the microchannel. Culture medium was applied to immerse the whole device. The device was then loaded on a microscope (Leica DMI4000B) thermal stage for real-time monitoring (SensiCam QE, PCO) of the bacterial growth. The length of the bacteria occupying the microchannel was measured in ImageJ (imagej.nih.gov/ij/). To model the polymicrobial infection with different species, E. coli (EC137) and S. epidermidis were cultured to OD600 around 0.2, mixed at ratio of 1:1, and diluted to a final concentration of 1×10^6 cfu/mL with and without ampicillin (8 μg/mL). To mimic the polymicrobial infection with different strains, E. coli (EC137 and EC136) were mixed at a ratio of 10:1 and diluted to a final concentration of 5×10^6 cfu/mL with and without ampicillin. In this embodiment, the antibiotic resistance was determined as 50% reduction in the growth rate (or two-fold difference in growth rate) in the antibiotic group based on the distribution of the growth rate of single cells. In particular, we define the threshold value based on the standard derivation of single cell growth and t-statistics (two-tailed, unpaired). In our calibration tests, the standard deviations of the growth rate were below 25% of the mean (in the worst case scenario). In the calculation, the degree of freedom was 8, since at least 5 bacteria were used in each group. A 50% reduction in growth rate is equivalent to a p-value of approximately 0.022.

[2] = test system: S. epidermidis (ATCC 12228); assay: Single cell AST in adaptable microfluidic device; assay type: cell-based; conditions: for antibiotic response in polymicrobial sample: ampicillin 8 μg/mL, mixed with E. coli EC137 1:1
From the text: as §1, §2, §3

[3] = test system: E. coli (EC136); assay: Single cell AST in adaptable microfluidic device; assay type: cell-based; conditions: ampicillin; EC137 and EC136 mixed 10:1
Description: We further evaluated the capability of the microfluidic system for identifying samples with multiple strains of the same species, which is challenging for genotypic diagnosis. Two strains of E. coli (EC137 and EC136 at a 10:1 ratio) with different antibiotic resistance profiles were tested. EC137 is susceptible to ampicillin while EC136 is resistant to ampicillin. Both strains were trapped in the microchannels at 180 kPa pressure with no spatial separation in the microchannel (FIG. 3F). […] In the antibiotic group, EC136 grew exponentially with ampicillin in the medium, whereas EC137 was lysed by ampicillin. FIG. 3J illustrates the growth curves of EC136 and EC137 in the same test.
E. coli, S. epidermidis, and M. bacteremicum were cultured in Mueller Hinton broth, Nutrient broth, and ATCC medium 1395, respectively. The bacteria were cultured to an optical density at 600 nm (OD600) around 0.2 (measured with Nanodrop 2000, Thermo Scientific) and diluted to 5×10^5 cfu/mL following the CLSI guideline. […] The concentration of oxacillin for S. epidermidis was 4 μg/mL. […] The length of the bacteria occupying the microchannel was measured in ImageJ (imagej.nih.gov/ij/). […] In this embodiment, the antibiotic resistance was determined as 50% reduction in the growth rate (or two-fold difference in growth rate) in the antibiotic group based on the distribution of the growth rate of single cells. […]

[4] = test system: E. coli EC137; assay: NAME pathogen identification with microfluidic single cell AST; assay type: cell-based; conditions: growth in channels with ciprofloxacin
From the text: (§4) We integrated pathogen identification and single cell AST by applying a microfluidic confinement technique (FIG. 23A) (18, from which the description of the microfluidic device and technique is incorporated herein by reference). […] In this integrated identification and AST assay, the bacteria were transformed, loaded into the microchannels via capillary flow, and trapped in the channels for phenotypic AST. […] AST was implemented by monitoring the bacterial growth in the channels with and without the presence of antibiotics.
(§5) The bacteria suspension (1 μl) was loaded onto a microscope slide and covered with a cover glass for imaging and counting using a fluorescence microscope (Leica DMI 4000B, objective 40×). The transformation efficiency was estimated by the number of bacteria with an observable fluorescence intensity over the total number of bacteria (bright-field). To conduct AST, the transformed bacteria were loaded onto the microfluidic device by capillary force.

[5] = test system: E. coli EC132; assay: as above; assay type: cell-based; conditions: growth in channels with ciprofloxacin
From the text: as §4, §5

[6] = test system: EC137; assay: Testing bacteria resistance with agar pads; assay type: cell-based, E. coli; conditions: with and without ciprofloxacin
From the text: FIG. 28. Testing bacteria resistance with agar pads. (A) Schematics of the procedure for creating agar pads for single cell AST. […] Scale bars, 25 μm.

[7] = test system: M. bacteremicum (ATCC 25791); assay: Single cell AST in adaptable microfluidic device; assay type: cell-based; conditions: ciprofloxacin 2 μg/mL; growth/non-growth defined by 50% reduction in growth rate
From the text: as §1, §2, §3

[8] = test system: bacterial 16S rRNA of P. aeruginosa; assay: Intracellular 16S rRNA detection with double-stranded probes delivered by NAME; assay type: cell-based
From the text: (§6) As discussed above, the present disclosure provides a microwave electroporation approach for transforming molecular probes into viable bacteria for intracellular sensing and pathogen identification (FIG. 24). Multiwall carbon nanotubes, which couple and localize the microwave energy, can enhance the electric field in a manner similar to a lightning rod for microwave electroporation with a minimal effect on the cell viability^(14, 15). To evaluate the feasibility of multiplex single cell pathogen identification using NAME, two molecular probes targeting the species-specific regions of bacterial 16S rRNA of E. coli (EC probe) and P. aeruginosa (PA probe) were designed and transformed into the bacteria (Tables 4-5). The performance of the double-stranded nucleic acid probe was first calibrated for use in homogeneous sensing (FIG. 25). For multiplex detection, the PA probe was labeled with 6-carboxyfluorescein (6-FAM) and the EC probe was labeled with 6-carboxytetramethylrhodamine (6-TAMRA). Uropathogenic E. coli and P. aeruginosa were transformed with both probes for pathogen identification (FIG. 20D).
(§7) Four double-stranded probes were used in this disclosure (Table 4). Each probe contained two DNA strands. The donor strands were 22-24 nucleotides long and complementary to the target RNA of interest^(27, 28). The fluorophores, 6-FAM (Fluorescein) or 6-TAMRA (NHS Ester), were labeled at the 3′ end of the donor strands. The quencher strands were 11-12 nucleotides in length. The dark quenchers, Iowa Black FQ for 6-FAM or Iowa Black RQ for 6-TAMRA, were labeled at the 5′ end of the quencher strands immediately adjacent to the fluorophores on the donor strands. The probes were synthesized by Integrated DNA Technologies (Coralville, IA). Other reagents were purchased from Sigma Inc. (St. Louis, MO) unless otherwise specified. To conduct the assay, the probes were made by mixing the fluorophore and quencher strands in the buffer solution, which contains 10 mM Tris-EDTA with 100 mM NaCl at a 1:3 molar ratio, at 95° C. for 5 minutes. The mixtures were then allowed to cool down to room temperature slowly. The final concentration of the probes in the transformation test was 1.5×10^3 nM.
(§8) Bacteria were grown in Mueller Hinton Broth. To transform the double-stranded probe into bacteria, 100 μl of bacterial sample was centrifuged at 4500 rpm for 5 minutes and washed twice with phosphate buffer (PBS 1×). The multiwall carbon nanotubes that are functionalized with a carboxyl group (COOH) have a diameter of 30±15 nm and a length from 1 to 5 μm (NanoLab, Inc.). The nanotube solution (30 mg/ml) was filtered with a 1 μm microfilter. The pellet was resuspended into 100 μl filtered nanotube solution and incubated for 10 minutes at room temperature. Then, 10 μl molecular probe was added and incubated at room temperature for 10 minutes. The sample was incubated in ice for 5 minutes and then put into a microwave oven (700 W, 2.45 GHz) for 10 seconds. The microwave treated bacteria was incubated at room temperature for 30 minutes and washed 3 times with PBS (1×) to remove the extra probes and resuspended in PBS for imaging.

[9] = test system: bacterial 16S rRNA of E. coli; assay: as above; assay type: cell-based
From the text: as §6, §7, §8

CC1(C)S[C@@H]2[C@H](NC(=O)[C@H](N)c3ccccc3)C(=O)N2[C@H]1C(=O)O [ampicillin]
antibiotic response in polymicrobial sample [1]: susceptible | antibiotic response in polymicrobial sample ([1]; listed as Ampicillin): bactericidal effect | antibiotic response in polymicrobial sample [2]: resistant | antibiotic response in polymicrobial sample ([2]; listed as Ampicillin): no effect | antibiotic response in polymicrobial sample [3]: resistant

Cc1onc(-c2ccccc2)c1C(=O)N[C@@H]1C(=O)N2[C@@H]1SC(C)(C)[C@@H]2C(=O)O [oxacillin]
antimicrobial susceptibility (growth in microchannel) ([2]; oxacillin 4 μg/mL, growth/non-growth defined by 50% reduction in growth rate): completely inhibited the growth

O=C(O)c1cn(C2CC2)c2cc(N3CCNCC3)c(F)cc2c1=O [ciprofloxacin]
antimicrobial susceptibility after NAME [4]: susceptible | antimicrobial susceptibility after NAME [5]: resistant | growth in agar pads [6]: inhibited the growth | antimicrobial susceptibility (growth in microchannel) ([1]; ciprofloxacin 4 μg/mL, growth/non-growth defined by 50% reduction in growth rate): effective | antimicrobial susceptibility (growth in microchannel) [7]: effective

PA probe: double-stranded DNA probe for P. aeruginosa 16S rRNA; donor SEQ ID 6 with 3′ 6-FAM, quencher SEQ ID 7 (sense GCTGAACCACCTACGCGCGCTTT; antisense AAAGCGCGCGTA; sense: 3' {FAM}, sugars by position and backbone not given here; antisense: 5' {IBFQ}, sugars by position and backbone not given here)
fluorescence signal from the probe in the bacteria ([8]; P. aeruginosa samples, both probes transformed): high fluorescence signal | single cell pathogen identification of clinical isolates ([8]; isolates from clinical urine samples): specifically identified | fluorescence signal from the probe in the bacteria (non-target probe) ([9]; samples with E. coli only, PA probe): not observable

EC probe (Red): double-stranded DNA probe for E. coli 16S rRNA; donor SEQ ID 3 with 3′ 6-TAMRA, quencher SEQ ID 4 with 5′ Iowa Black RQ (sense GGTATTAACTTTACTCCCTTCCTC; antisense GAGGAAGGGAGT; sense: 3' {TAMRA}, sugars by position and backbone not given here; antisense: 5' {IBRQ}, sugars by position and backbone not given here)
fluorescence signal from the probe in the bacteria (non-target probe) ([8]; P. aeruginosa samples, EC probe): not | single cell pathogen identification of clinical isolates ([9]; isolates from clinical blood and urine samples): specifically identified | fluorescence signal from the probe in the bacteria ([9]; samples with E. coli only, both probes transformed): clearly observed
